Here are results for 51 molecules from patent US20260200890A1, “ADAR1 INHIBITORS AND METHODS OF USING THE SAME” (AVAMMUNE THERAPEUTICS INC., priority 2022, published 2026).

The target of this experiment is T1, ADAR1 (Homo sapiens, UniProt P55265).
T1 construct: endogenous in cells; host or cells: p110 KO A549 dual cells
T1 sequence (P55265 1-1226): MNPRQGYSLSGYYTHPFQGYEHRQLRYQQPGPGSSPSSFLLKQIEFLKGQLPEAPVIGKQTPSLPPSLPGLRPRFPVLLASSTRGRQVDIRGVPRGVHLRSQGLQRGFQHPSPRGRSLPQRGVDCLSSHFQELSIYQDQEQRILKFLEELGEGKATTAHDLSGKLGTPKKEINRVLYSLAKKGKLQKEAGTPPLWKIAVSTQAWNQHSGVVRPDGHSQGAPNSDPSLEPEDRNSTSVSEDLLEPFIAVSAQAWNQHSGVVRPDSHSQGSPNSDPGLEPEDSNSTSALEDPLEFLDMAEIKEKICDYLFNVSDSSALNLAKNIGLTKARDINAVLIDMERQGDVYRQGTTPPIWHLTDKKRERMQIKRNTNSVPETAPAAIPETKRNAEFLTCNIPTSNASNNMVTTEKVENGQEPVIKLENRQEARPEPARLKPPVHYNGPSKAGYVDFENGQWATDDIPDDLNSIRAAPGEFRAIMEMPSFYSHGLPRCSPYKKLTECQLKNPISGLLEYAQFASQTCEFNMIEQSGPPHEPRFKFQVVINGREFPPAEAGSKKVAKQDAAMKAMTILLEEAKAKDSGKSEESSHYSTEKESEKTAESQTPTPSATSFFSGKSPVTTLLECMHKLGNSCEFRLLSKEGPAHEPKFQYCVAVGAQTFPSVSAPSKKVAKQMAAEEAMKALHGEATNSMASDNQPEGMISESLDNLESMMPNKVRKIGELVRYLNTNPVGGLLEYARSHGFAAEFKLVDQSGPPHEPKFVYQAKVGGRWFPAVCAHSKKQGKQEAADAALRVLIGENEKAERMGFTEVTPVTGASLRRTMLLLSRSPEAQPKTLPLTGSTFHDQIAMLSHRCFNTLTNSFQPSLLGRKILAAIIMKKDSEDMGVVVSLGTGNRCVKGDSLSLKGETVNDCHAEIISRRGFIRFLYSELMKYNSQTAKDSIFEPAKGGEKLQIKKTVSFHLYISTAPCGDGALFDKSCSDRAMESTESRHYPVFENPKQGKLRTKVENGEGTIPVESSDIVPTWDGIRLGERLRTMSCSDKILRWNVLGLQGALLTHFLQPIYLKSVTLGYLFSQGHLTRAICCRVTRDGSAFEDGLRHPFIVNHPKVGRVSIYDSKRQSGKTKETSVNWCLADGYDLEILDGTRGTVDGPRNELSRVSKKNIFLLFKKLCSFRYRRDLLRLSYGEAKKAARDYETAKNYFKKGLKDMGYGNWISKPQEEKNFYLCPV
Kind of experiment: ADAR1 Inhibition Assay (IFN fold-induction, Quanti-Luc luminescence, p110 KO A549 dual cells). Type of experiment: cell-based. To be noted: IFN fold-induction vs DMSO, 24 and 48 h. As for the experimental part:
An ADAR1 Inhibition Assay was used to determine the biological activity (EC50) of compounds disclosed herein. 100 μL of p110 KO A549 dual cell suspension in supplemented DMEM (20,000 cells per well) was added into a flat bottom 96 well plate. Next day, post media change, 180 μL of supplemented DMEM was added. 20 μL of test compound or positive control was added to the respective wells (Final concentration of DMSO is 1%). The plate was incubated for 24 and 48 hours at 37° C. in a 5% CO2 incubator. After 24 and 48 h, 20 μL of cell suspension was taken in black well plates and 50 μL of Quanti-Luc was added to each well and luminescence was measured using a microplate reader (Spectra Max). IFN fold-induction was plotted considering DMSO as control using the relative luminescence unit (RLU) values. (Fold induction: Sample RLU/Average DMSO RLU).

One may read the EC50 as the concentration at which the effect is half-maximal. Take `CCOC(=O)c1cc(-c2ccc(OC(F)(F)F)cc2)sc1NC(=O)COC(=O)c1cccc(S(N)(=O)=O)c1` [Compound 73]: the concentration for a half-maximal effect (EC50) was > 100 µM.
As for `CCOC(=O)c1cc(-c2ccccc2)sc1NC(=O)COC(=O)c1ccc(Cl)c(S(N)(=O)=O)c1` [Compound 74], the EC50 was > 100 µM.
For `CCOC(=O)c1cc(-c2ccc(F)cc2)sc1NC(=O)COC(=O)c1cccc(S(N)(=O)=O)c1` [Compound 75], the EC50 was ≤ 25 µM.
`CCOC(=O)c1cc(-c2ccccc2)sc1NC(=O)COC(=O)c1cc(S(N)(=O)=O)ccc1C` [Compound 76]: the EC50 is > 100 µM.
Take `CCOC(=O)c1c(NC(=O)COC(=O)c2cccc(S(N)(=O)=O)c2)sc2c1CCC2` [Compound 77]: the EC50 is > 100 µM.
The same measure for `NS(=O)(=O)c1cccc(C(=O)OCC(=O)Nc2ccc(-c3ccccc3)s2)c1` [Compound 78]: > 100 µM; for `CCOC(=O)c1cc(-c2ccccc2)sc1NC(=O)[C@H](CC)OC(=O)c1cccc(S(N)(=O)=O)c1` [Compound 79]: > 100 µM.
As to `CCOC(=O)c1cc(-c2ccccc2)sc1NC(=O)[C@H](CC)OC(=O)c1cccc(NS(C)(=O)=O)c1` [Compound 80], the 50% effective concentration (EC50) is > 100 µM.
The same measure for `CCOC(=O)c1cc(-c2ccc(C(C)C)cc2)sc1NC(=O)COC(=O)c1cccc(S(N)(=O)=O)c1` [Compound 81]: > 100 µM; for `CCOC(=O)c1cc(-c2ccccc2)sc1NC(=O)COC(=O)c1cccc(OS(C)(=O)=O)c1` [Compound 82]: > 100 µM; for `Cc1cc(C#N)c(NC(=O)COC(=O)c2cccc(S(N)(=O)=O)c2)s1` [Compound 83]: > 100 µM.
With `CS(=O)(=O)Oc1cccc(C(=O)OCC(=O)Nc2sc(-c3ccccc3)cc2C(N)=O)c1` [Compound 84], the EC50 is > 100 µM.
As to `CS(=O)(=O)Nc1cccc(C(=O)OCC(=O)Nc2sc(-c3ccccc3)cc2C(=O)NC2CC2)c1` [Compound 85], the concentration for a half-maximal effect (EC50) was > 100 µM.
The same measure for `CCOC(=O)c1c(NC(=O)COC(=O)c2cccc(NS(C)(=O)=O)c2)sc2c1CCC2` [Compound 86]: > 100 µM; for `CCOC(=O)c1cc(-c2ccccc2)sc1NC(=O)c1cccc(C#N)c1` [Compound 88]: > 100 µM.
To `CCOC(=O)c1c(NC(=O)COC(=O)c2cccc(NS(C)(=O)=O)c2)sc2c1CCCC2` [Compound 89] belongs > 100 µM; to `CS(=O)(=O)Nc1cccc(C(=O)OCC(=O)Nc2sccc2C#N)c1` [Compound 90], > 100 µM; to `CCOC(=O)c1c(NC(=O)COC(=O)c2cccc(C#N)c2)sc2c1CCCC2` [Compound 91], > 100 µM.
The same measure for `CCOC(=O)c1cc(-c2ccccc2)sc1NC(=O)COC(=O)c1cccc(NS(=O)(=O)c2ccc(F)cc2)c1` [Compound 93]: > 100 µM; for `CCOC(=O)c1c(-c2ccccc2)csc1NC(=O)COC(=O)c1cccc(NS(C)(=O)=O)c1` [Compound 95]: > 100 µM.
Regarding `CCOC(=O)c1cc(-c2ccccc2)sc1NC(=O)COC(=O)c1cccc(C(=O)O)c1` [Compound 96], the EC50 is > 100 µM.
On to `CCOC(=O)c1ccsc1NC(=O)COC(=O)c1cccc(NS(C)(=O)=O)c1` [Compound 97], for which the 50% effective concentration (EC50) is > 100 µM.
The same measure for `CCOC(=O)c1cc(-c2ccc(OC(F)(F)F)cc2)sc1NC(=O)COC(=O)c1cccc(NS(C)(=O)=O)c1` [Compound 100]: > 100 µM; for `CCOC(=O)c1cc(-c2ccccc2)sc1NC(=O)COC(=O)c1ccc(NS(C)(=O)=O)cc1` [Compound 101]: > 100 µM.
To `CCOC(=O)c1cc(-c2ccccc2)sc1NC(=O)COC(=O)c1cccc(NS(=O)(=O)c2ccc(C)cc2)c1` [Compound 102] belongs > 100 µM; to `CCOC(=O)c1cc(-c2ccc(S(C)(=O)=O)cc2)sc1NC(=O)COC(=O)c1cccc(NS(C)(=O)=O)c1` [Compound 103], > 100 µM.
The same measure for `CCOC(=O)c1c(NC(=O)COC(=O)c2cccc(NS(C)(=O)=O)c2)sc2c1CCN(C)C2` [Compound 104]: > 100 µM; for `CCOC(=O)c1cc(-c2ccccc2)sc1NC(=O)CN(c1cccc(CO)c1)S(C)(=O)=O` [Compound 105]: > 100 µM; for `CCOC(=O)c1cc(-c2ccc(C(F)(F)F)cc2)sc1NC(=O)COC(=O)c1cccc(NS(C)(=O)=O)c1` [Compound 106]: > 100 µM.
In the case of `CCOC(=O)c1cc(-c2ccc(F)cc2)sc1NC(=O)COC(=O)c1cccc(NS(C)(=O)=O)c1` [Compound 108], the concentration giving a half-maximal response (EC50) is ≤ 25 µM.
To `CCOC(=O)c1cc(-c2ccccc2)sc1NC(=O)C1CCCN1C(=O)c1cccc(NS(C)(=O)=O)c1` (stereo not drawn) [Compound 109] belongs > 100 µM; to `CCOC(=O)c1cc(-c2ccccc2)sc1NC(=O)COC(=O)c1ccccc1NS(C)(=O)=O` [Compound 110], > 100 µM.
Take `CCOC(=O)c1cc(-c2ccccc2)sc1NC(=O)C1CCCN(C(=O)c2cccc(S(N)(=O)=O)c2)C1` (stereo not drawn) [Compound 111]: the concentration for a half-maximal effect (EC50) is > 100 µM.
The same measure for `CCOC(=O)c1cc(-c2ccccc2)sc1NC(=O)COC(=O)c1cccc(NS(N)(=O)=O)c1` [Compound 112]: > 100 µM.
For `CCOC(=O)c1ccc(-c2ccccc2)nc1NC(=O)COC(=O)c1cccc(NS(C)(=O)=O)c1` [Compound 113], the concentration for a half-maximal effect (EC50) was > 100 µM.
As to `CCOC(=O)c1cc(-c2cncnc2)sc1NC(=O)COC(=O)c1cccc(NS(N)(=O)=O)c1` [Compound 115], the concentration for a half-maximal effect (EC50) is > 100 µM.
As for `CCOC(=O)c1cc(-c2cccc(F)c2)sc1NC(=O)COC(=O)c1cccc(NS(C)(=O)=O)c1` [Compound 116], the EC50 was > 100 µM.
The same measure for `CCNC(=O)c1cc(-c2ccccc2)sc1NC(=O)COC(=O)c1cccc(NS(C)(=O)=O)c1` [Compound 117]: > 100 µM; for `CCOC(=O)c1cc(-c2ccc(F)cc2)sc1NC(=O)C1CCCN1C(=O)c1cccc(NS(C)(=O)=O)c1` (stereo not drawn) [Compound 119]: > 100 µM.
The same measure for `CCOC(=O)c1ccc(-c2ccccc2)cc1NC(=O)COC(=O)c1cccc(NS(C)(=O)=O)c1` [Compound 120]: > 100 µM; for `CCOC(=O)c1cc(-c2ccccc2)sc1NC(=O)CN(C)C(=O)c1cccc(S(N)(=O)=O)c1` [Compound 122]: > 100 µM.
To `CS(=O)(=O)Nc1cccc(C(=O)OCC(=O)Nc2sc(-c3ccccc3)cc2C(=O)N2CCOCC2)c1` [Compound 123] belongs > 100 µM; to `CCOC(=O)c1cc(-c2ccccc2)sc1NC(=O)COC(=O)c1cccc(NS(=O)(=O)c2ccccc2)c1` [Compound 124], > 100 µM.
`CCOC(=O)c1cc(-c2ccccc2)sc1NC(=O)COC(=O)c1cc(NS(C)(=O)=O)ccc1C` [Compound 125]: the concentration giving a half-maximal response (EC50) was > 100 µM.
As for `CCOC(=O)c1cc(-c2ccccc2)sc1NC(=O)COC(=O)Cc1cccc(NS(C)(=O)=O)c1` [Compound 126], the EC50 is > 100 µM.
To `CCOC(=O)c1cc(-c2ccccc2)sc1NC(=O)COC(=O)c1cc(NS(C)(=O)=O)c(F)cc1F` [Compound 128] belongs > 100 µM.
To `CCOC(=O)c1cc(-c2ccccc2)sc1NC(=O)COC(=O)c1cc(NS(C)(=O)=O)ccc1F` [Compound 129] belongs > 100 µM; to `CCOC(=O)c1cc(-c2ccccc2)sc1NC(=O)COC(=O)c1cccc(NS(=O)(=O)C(C)C)c1` [Compound 131], > 100 µM; to `CCCCS(=O)(=O)Nc1cccc(C(=O)OCC(=O)Nc2sc(-c3ccccc3)cc2C(=O)OCC)c1` [Compound 133], > 100 µM.
To `CCOC(=O)c1cc(-c2ccccc2)sc1NC(=O)COC(=O)c1cccc(NS(=O)(=O)CC)c1` [Compound 134] belongs > 100 µM; to `CCOC(=O)c1cc(-c2ccc(N3CCOCC3)cc2)sc1NC(=O)COC(=O)c1cccc(NS(C)(=O)=O)c1` [Compound 135], > 100 µM.
